Measured values taken from PMC6520918, “Antiproliferative Effects of Hop-derived Prenylflavonoids and Their Influence on the Efficacy of Oxaliplatine, 5-fluorouracil and Irinotecan in Human ColorectalC Cells” (Nutrients, 2019).

Key:
[1] = tested on: SW620 cells; assay: Cellular ROS formation (H2DCF-DA oxidation); assay type: cell-based, human; details: for ROS production vs control: SW620, compound alone at its IC50, 0.5-24 h incubation
Method: To assess ROS generation in SW620 cells, a measurement of 2′,7′-dichlorodihydrofluorescein-diacetate (H2DCF-DA) oxidation was used. Cells (seeded in a 96-well plate at a density of 2500 cells/well) were washed with PBS buffer and incubated with 100 μL of 5 μM H2DCF-DA in Hank’s balanced salt solution (HBSS). […] Finally, fluorescence intensity was measured at the excitation and emission wavelengths of 485 nm/525 nm for 50 min at 37 °C using the microplate reader Infinite M200 (Tecan, Männedorf, Switzerland). The cells incubated in HBSS with DMSO only (as a solvent) were used as untreated control samples, while those incubated in the presence of 3% H2O2 were used as a positive control.
As is generally accepted, cancer cells generate more ROS than do normal cells and at the same time, they are sensitive to the effect of agents which augment oxidative stress and thus push these stressed cells beyond their limit. Therefore, the pro-oxidative effect of prenylflavonoids and NAR was tested in the SW620 cells in order to elucidate the observed antiproliferative effects of these compounds. […] ROS production was measured in the SW620 cells incubated with prenylflavonoids or NAR at a concentration equal to their IC50 using a DCFH-DA assay. ROS production was monitored during 24-hour incubation at several time points (0.5, 1, 4, 8, and 24 h).
(§1) Further, we decided to determine the influence of combinations of the studied flavonoids with cytostatics on ROS formation and the activity of caspases in SW620 cells. Combination effects of flavonoids and cytostatics were investigated at equipotent concentrations of the IC50 values for each compound. ROS production was monitored using a DCFH-DA assay at several time points (0.5, 1, 4, 8, and 24 h) during a 24-hour incubation. The activities of caspases-8, -9, and -3/7 were assessed using a luminescence assay kit at 4, 8, and 24 h of incubation.

[2] = tested on: SW620 cells; assay: Neutral red uptake (NRU) cell viability assay, 72 h; assay type: cell-based, human
Excerpt: (§2) The prenylflavonoids and NAR were pre-dissolved in DMSO, while 5-FU, IRT and OxPt were pre-dissolved in distilled water. […] During screening for antiproliferative effects, SW480, SW620, and CaCo-2 were exposed to various concentrations of individual compounds in culture medium: XH, IXH, 6-PN and 8-PN (1–100 μmol/L), NAR (1–200 µmol/L), 5-FU and IRT (0.1–100 µmol/L), and OxPt (0.1–25 µmol/L). The cells cultured in medium with 0.1% DMSO or 0.2% DMSO (for 8-PN only) were used as untreated control samples. In the case of OxPt, the untreated control sample contained cells cultured in medium only. The cells treated with 10% DMSO served as a positive control. Neutral red uptake (NRU) assay was used to determine the number of viable cells after 72 h of exposition. The effect of prenylflavonoids and NAR on 5-FU, IRT or OxPt efficacy was evaluated using CalcuSyn (ver. 1.1) software.
(§3) In the NRU assay, the cells were cultured in 96-well plates (SW480 and SW620: 2500 cells/well; CaCo-2 cells: 200 cells/well) and exposed to the tested compounds for 72 h. Thereafter, the medium was removed and 100 μL of neutral red-containing medium was added into each well and the plates were incubated at 37 °C for an additional 3 h. Then the cells were washed with 100 μL of PBS and fixed in a solution of 0.5% formaldehyde/1% calcium chloride for 15 minutes. The neutral red dye was extracted from the viable cells with a solvent (50% ethanol/1% acetic acid) by shaking for 30 min at room temperature. The absorbance of solubilized dye was measured using the spectrophotometer Infinite M200 (Tecan, Männedorf, Switzerland) at 540 nm. Each sample was assayed in six parallels and three independent experiments were performed. The viabilities of treated cells were expressed as a percentage of untreated controls (100%).
(§4) All calculations were done using Microsoft Excel and GraphPad Prism 7.03 (GraphPad Software, La Jolla, CA, USA). All values were expressed as mean ± S.D. of a given number of experiments. Statistical significance (evaluated using a one-way ANOVA with Dunett’s test) was acceptable to a level of p < 0.05. The concentration inducing a 50% decrease of cell viability as compared to control (IC50) was calculated using GraphPad Prism 7.03—nonlinear regression.

[3] = tested on: SW480 cells; assay: as above; assay type: cell-based, human; details: SW480, 72 h of exposition
Excerpt: as §2, §3, §4

[4] = tested on: proliferating CaCo-2 cells; assay: as above; assay type: cell-based; details: Homo sapiens, CaCo-2 proliferating, 72 h of exposition
Method: (§5) The CaCo-2 cell line was cultured in EMEM medium supplemented with 10% heat-inactivated FBS, 1% non-essential amino acids, 1% glutamine, and 0.5% penicillin/streptomycin. The cells were grown in 96-well plates for 3 (proliferating cells) and 21 (differentiated cells) days in a humidified atmosphere containing 5% CO2 at 37 °C and subcultured every 3 days.
as §2, §3, §4

[5] = tested on: differentiated CaCo-2 cells; assay: as above; assay type: cell-based; details: Homo sapiens, CaCo-2 differentiated, 72 h of exposition
Method: as §5, §2, §3, §4

[6] = tested on: colorectal cancer cell lines SW480, SW620 and CaCo-2; assay: Antiproliferative effect (NRU assay) across colorectal cancer cell lines; assay type: cell-based; details: Homo sapiens; proliferating colon cancer cells (SW480, SW620, CaCo-2), 72 h; read-out: IC50 range over cell lines
Excerpt: as §2, with “Neutral red uptake (NRU) assay was used to determine the number of viable cells after 72 h of exposition.” left out
In the NRU assay, the cells were cultured in 96-well plates (SW480 and SW620: 2500 cells/well; CaCo-2 cells: 200 cells/well) and exposed to the tested compounds for 72 h. […] The absorbance of solubilized dye was measured using the spectrophotometer Infinite M200 (Tecan, Männedorf, Switzerland) at 540 nm. […] The viabilities of treated cells were expressed as a percentage of untreated controls (100%).
All calculations were done using Microsoft Excel and GraphPad Prism 7.03 (GraphPad Software, La Jolla, CA, USA). All values were expressed as mean ± S.D. of a given number of experiments. […]

[7] = tested on: caspases-3/7 in SW620 cells; assay: Caspase-Glo assay, effector caspases-3/7 activity; assay type: cell-based, human; details: for Caspase-3/7 activity, combination with 5-FU / Caspase-3/7 activity, combination with IRT / Caspase-3/7 activity, combination with OxPt: SW620, 24-hour incubation, compared to cytostatic alone; for Induction of caspases-3/7 activity: SW620, compound at IC50, 24-h exposure
Method: (§6) The activities of initiator caspases-8 and -9 and effector caspases-3/7 were assayed using Caspase-Glo Assays (Promega, Madison, USA). The SW620 cells (seeded in a […]) were cultivated in 12-well plates. […] The untreated control cells were incubated in medium containing only 0.1% DMSO. The lysates were collected into microtubes. Caspase-8, Caspase-9 and Caspases-3/7 reagents were prepared according to the manufacturer’s instructions. The lysates (25 μL in each well) were transferred into a white-walled 384-well-plate for the luminometer, at which point 25 μL of Caspase-8 or Caspase-9 or Caspases-3/7 reagents were added to each well. The plate was gently mixed for 30 seconds and then incubated for 30 minutes at room temperature. The luminescence was measured using the luminometer Infinite M200 (Tecan, Männedorf, Switzerland).
(§7) In order to determine whether the observed antiproliferative activity of the prenylflavonoids and naringenin could be explained at least in part by the induction of apoptosis, the activities of initiator (caspase-8 and caspase-9) as well as effector caspases (caspases-3/7) were assessed in the SW620 cells, which were exposed to the studied compounds for 4, 8, and 24 h, with the activities of the caspases measured using a luminescence assay.
as §1

[8] = tested on: caspase-9 in SW620 cells; assay: Caspase-Glo assay, initiator caspase-9 activity; assay type: cell-based, human
Method: as §6, §7, §1

[9] = tested on: caspase-8 in SW620 cells; assay: Caspase-Glo assay, initiator caspase-8 activity; assay type: cell-based, human
Method: as §6, §7, §1

[10] = Homo sapiens, SW-620, SW620, 72 h of exposition
[11] = SW620, 4-hour incubation, compared to cytostatic alone
[12] = SW620, 4-h incubation, compared to cytostatic alone
[13] = SW620, combination with 5-FU, OxPt or IRT

CC(C)=CCc1c(O)cc2c(c1O)C(=O)C[C@@H](c1ccc(O)cc1)O2 [6-PN, 6-prenylnaringenin]
ROS production vs control [1]: initially elevated ROS levels in cells and then surprisingly displayed a strong antioxidant effect at the later intervals
IC50 [2, 10]: 13.7 µM
IC50 ([3]; Homo sapiens): 14.8 µM
IC50 [4]: 24 µM
IC50 [5]: 61.9 µM

COc1cc(O)c(CC=C(C)C)c(O)c1C(=O)/C=C/c1ccc(O)cc1 [XH, Xanthohumol]
IC50 [6]: 3.6 to 7.3 µM
Caspase-3/7 activity, combination with 5-FU [7]: marked increase
Caspase-3/7 activity, combination with IRT [7]: marked increase
ROS production vs control [1]: strong pro-oxidative effect within the entire 24-hour incubation
IC50 [2, 10]: 7.3 µM
IC50 ([3]; Homo sapiens): 3.6 µM
IC50 [4]: 6.2 µM
IC50 [5]: 39.3 µM

CC(C)=CCc1c(O)cc(O)c2c1O[C@H](c1ccc(O)cc1)CC2=O [8-PN, 8-prenylnaringenin]
Caspase-9 activity, combination with IRT [8, 11]: more potent than the respective cytostatics alone
Caspase-9 activity, combination with OxPt [8, 11]: more potent than the respective cytostatics alone
Caspase-3/7 activity, combination with 5-FU [7]: marked increase
Caspase-3/7 activity, combination with OxPt [7]: marked increase
Induction of caspases-3/7 activity ([7]; vs untreated control): 44.7%
Caspase-8 activity, combination with IRT [9, 12]: significantly increased
Caspase-8 activity, combination with OxPt [9, 12]: significantly increased
ROS production vs control [1]: initially elevated ROS levels in cells and then surprisingly displayed a strong antioxidant effect at the later intervals
IC50 [2, 10]: 24.9 µM
IC50 ([3]; Homo sapiens): 56.3 µM
IC50 [4]: 48.9 µM
IC50 [5]: > 100 µM

COc1cc(O)c(CC=C(C)C)c2c1C(=O)CC(c1ccc(O)cc1)O2 (centres unmarked) [IXH, isoxanthohumol]
Caspase-9 activity, combination with 5-FU [8, 11]: more potent than the respective cytostatics alone
Caspase-3/7 activity, combination with 5-FU [7]: marked increase
Caspase-3/7 activity, combination with IRT [7]: marked increase
Caspase-3/7 activity, combination with OxPt [7]: marked increase
Induction of caspases-3/7 activity ([7]; vs untreated control): 50.5%
Caspase-8 activity, combination with 5-FU [9, 12]: significantly increased
Caspase-8 activity, combination with OxPt [9, 12]: significantly increased
ROS production vs control [1]: strong pro-oxidative effect within the entire 24-hour incubation
IC50 [2, 10]: 43.7 µM
IC50 ([3]; Homo sapiens): 40.4 µM
IC50 [4]: 47 µM
IC50 [5]: > 100 µM

CCc1c2c(nc3ccc(OC(=O)N4CCC(N5CCCCC5)CC4)cc13)-c1cc3c(c(=O)n1C2)COC(=O)[C@]3(O)CC [IRT, irinotecan]
IC50 [2, 10]: 25.4 µM
IC50 ([3]; Homo sapiens): 1.7 µM

O=C1[O][Pt]2([NH][C@@H]3CCCC[C@H]3[NH]2)[O]C1=O [OxPt, oxaliplatin]
IC50 ([2]; SW620, 72 h of exposition): 1.9 µM
IC50 [3]: 1.1 µM

O=c1[nH]cc(F)c(=O)[nH]1 [5-FU, 5-fluorouracil]
IC50 [2, 10]: 34.9 µM
IC50 ([3]; Homo sapiens): 22.6 µM

O=C1C[C@@H](c2ccc(O)cc2)Oc2cc(O)cc(O)c21 [NAR, naringenin, reference compound]
Decrease in caspase-9 activity ([8]; SW620, 4 h of exposure, vs untreated control): 19.7%
Caspase-9 activity, combined with all the cytostatics [8, 13]: marked induction
Suppression of effector caspases (3/7) activity, combined with all the cytostatics ([7]; SW620, combination with 5-FU, OxPt or IRT, all time intervals): up to 61.4%
Inhibition of caspases-3/7 ([7]; SW620, compound alone, 4, 8 and 24 h, vs untreated control): up to 52.7%
Caspase-8 activity, combined with all the cytostatics [9, 13]: marked induction
ROS production vs control [1]: only a mild pro-oxidative effect
ROS formation, combination with OxPt ([1]; SW620, flavonoid + OxPt at IC50 concentrations, all time points, vs control and flavonoid alone): feeble yet significant (p < 0.05) increase in ROS formation
ROS formation, combination with IRI ([1]; SW620, flavonoid + irinotecan at IC50 concentrations, all time points, vs control and flavonoid alone): feeble yet significant (p < 0.05) increase in ROS formation
IC50 [2, 10]: > 200 µM
IC50 ([3]; Homo sapiens): > 200 µM
